# System: 695427-040-R-J1-PDC complex spheroids, viability percent T/C
# Test: Anticancer human tumor 695427-040-R-J1-PDC patient-derived colon adenocarcinoma cell line growth inhibition [GQUAD]
# Conditions: for IC50: curve of first compound; for viability, T/C: stronger effect = lower value
# In short: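 Tumor cells were grown as complex spheroids with HUVEC endothelial cells and mesenchymal stem cells as stroma. G-quadruplex stabilizers were combined with targeted agents over half-log dilutions from near the clinical Cmax, or from 10 microM.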
# [1] = second compound 0.0316 µM, first compound 0.0316 µM
# [2] = second compound 0.0316 µM, first compound 0.1 µM
# [3] = second compound 0.0316 µM, first compound 0.316 µM
# [4] = second compound 0.0316 µM, first compound 1 µM
# [5] = second compound 0.0316 µM, first compound 3.16 µM
# [6] = second compound 0.0316 µM, first compound 10 µM
# [7] = second compound 0.1 µM, first compound 0.0316 µM
# [8] = second compound 0.1 µM, first compound 0.1 µM
# [9] = second compound 0.1 µM, first compound 0.316 µM
# [10] = second compound 0.1 µM, first compound 1 µM
# [11] = second compound 0.1 µM, first compound 3.16 µM
# [12] = second compound 0.1 µM, first compound 10 µM
# [13] = second compound 0.316 µM, first compound 0.0316 µM
# [14] = second compound 0.316 µM, first compound 0.1 µM
# [15] = second compound 0.316 µM, first compound 0.316 µM
# [16] = second compound 0.316 µM, first compound 1 µM
# [17] = second compound 0.316 µM, first compound 3.16 µM
# [18] = second compound 0.316 µM, first compound 10 µM
# [19] = second compound 1 µM, first compound 0.0316 µM
# [20] = second compound 1 µM, first compound 0.1 µM
# [21] = second compound 1 µM, first compound 0.316 µM
# [22] = second compound 1 µM, first compound 1 µM
# [23] = second compound 1 µM, first compound 3.16 µM
# [24] = second compound 1 µM, first compound 10 µM
# [25] = second compound 3.16 µM, first compound 0.0316 µM
# [26] = second compound 3.16 µM, first compound 0.1 µM
# [27] = second compound 3.16 µM, first compound 0.316 µM
# [28] = second compound 3.16 µM, first compound 1 µM
# [29] = second compound 3.16 µM, first compound 3.16 µM
# [30] = second compound 3.16 µM, first compound 10 µM
# [31] = second compound 10 µM, first compound 0.0316 µM
# [32] = second compound 10 µM, first compound 0.1 µM
# [33] = second compound 10 µM, first compound 0.316 µM
# [34] = second compound 10 µM, first compound 1 µM
# [35] = second compound 10 µM, first compound 3.16 µM
# [36] = second compound 10 µM, first compound 10 µM
# 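Note: spheroids exposed to compounds for seven days before readout.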
smiles,measurement,setting,value
C#Cc1c(F)ccc2cc(O)cc(-c3ncc4c(N5CC6CCC(C5)N6)nc(OCC56CCCN5CC(F)C6)nc4c3F)c12 (stereo unspecified) + Cc1cnc(CNC(=O)c2c(=O)c3ccc(N4CCCN(C)CC4)nc3n3c2sc2ccccc23)cn1,IC50,second compound 0.0316 µM,> 10000 nM
same,IC50,second compound 0.1 µM,> 10000 nM
same,IC50,second compound 0.316 µM,> 10000 nM
same,IC50,second compound 1 µM,> 10000 nM
same,IC50,second compound 3.16 µM,< 31.6 nM
same,IC50,second compound 10 µM,< 31.6 nM
same,"viability, T/C",[1],103%
same,"viability, T/C",[2],94.4%
same,"viability, T/C",[3],87.1%
same,"viability, T/C",[4],73.2%
same,"viability, T/C",[5],76.9%
same,"viability, T/C",[6],65.4%
same,"viability, T/C",[7],110%
same,"viability, T/C",[8],69.8%
same,"viability, T/C",[9],85%
same,"viability, T/C",[10],71.5%
same,"viability, T/C",[11],71.4%
same,"viability, T/C",[12],58.7%
same,"viability, T/C",[13],82.5%
same,"viability, T/C",[14],78.9%
same,"viability, T/C",[15],51.1%
same,"viability, T/C",[16],65.7%
same,"viability, T/C",[17],63.2%
same,"viability, T/C",[18],52.2%
same,"viability, T/C",[19],79.8%
same,"viability, T/C",[20],52.5%
same,"viability, T/C",[21],61.8%
same,"viability, T/C",[22],60.4%
same,"viability, T/C",[23],65%
same,"viability, T/C",[24],46.6%
same,"viability, T/C",[25],37.6%
same,"viability, T/C",[26],51.7%
same,"viability, T/C",[27],47.2%
same,"viability, T/C",[28],33.4%
same,"viability, T/C",[29],47%
same,"viability, T/C",[30],30.4%
same,"viability, T/C",[31],22.1%
same,"viability, T/C",[32],29.2%
same,"viability, T/C",[33],41.9%
same,"viability, T/C",[34],31.3%
same,"viability, T/C",[35],29.9%
same,"viability, T/C",[36],0.83%
CC(C)(O)C1CCC(Nc2ccc3ncc(-c4cccc(C(F)(F)F)c4)n3n2)CC1 (stereo unspecified) + Cc1cnc(CNC(=O)c2c(=O)c3ccc(N4CCCN(C)CC4)nc3n3c2sc2ccccc23)cn1,IC50,second compound 0.0316 µM,1110 nM
same,IC50,second compound 0.1 µM,848 nM
same,IC50,second compound 0.316 µM,1070 nM
same,IC50,second compound 1 µM,324 nM
same,IC50,second compound 3.16 µM,< 31.6 nM
same,IC50,second compound 10 µM,< 31.6 nM
same,"viability, T/C",[1],82.1%
same,"viability, T/C",[2],77.6%
same,"viability, T/C",[3],73.5%
same,"viability, T/C",[4],54.2%
same,"viability, T/C",[5],8.38%
same,"viability, T/C",[6],11.3%
same,"viability, T/C",[7],86.5%
same,"viability, T/C",[8],61.3%
same,"viability, T/C",[9],78.2%
same,"viability, T/C",[10],45.8%
same,"viability, T/C",[11],12.6%
same,"viability, T/C",[12],11.2%
same,"viability, T/C",[13],75.2%
same,"viability, T/C",[14],52.5%
same,"viability, T/C",[15],62.6%
same,"viability, T/C",[16],52.5%
same,"viability, T/C",[17],8.9%
same,"viability, T/C",[18],11.4%
same,"viability, T/C",[19],67.3%
same,"viability, T/C",[20],59.8%
same,"viability, T/C",[21],46.9%
same,"viability, T/C",[22],34.7%
same,"viability, T/C",[23],1.37%
same,"viability, T/C",[24],4.04%
same,"viability, T/C",[25],44.2%
same,"viability, T/C",[26],40.6%
same,"viability, T/C",[27],50.6%
same,"viability, T/C",[28],17.7%
same,"viability, T/C",[29],0.11%
same,"viability, T/C",[30],0.15%
same,"viability, T/C",[31],24.7%
same,"viability, T/C",[32],21.9%
same,"viability, T/C",[33],12.1%
same,"viability, T/C",[34],0.26%
same,"viability, T/C",[35],0.2%
same,"viability, T/C",[36],0.19%
COc1ncnc(C2CC2)c1-c1ncc2cnn(Cc3ccc(-c4nc(C(F)(F)F)cn4C(C)C)cc3)c2n1 + Cc1cnc(CNC(=O)c2c(=O)c3ccc(N4CCCN(C)CC4)nc3n3c2sc2ccccc23)cn1,IC50,second compound 0.0316 µM,> 10000 nM
same,IC50,second compound 0.1 µM,> 10000 nM
same,IC50,second compound 0.316 µM,> 10000 nM
same,IC50,second compound 1 µM,> 10000 nM
same,IC50,second compound 3.16 µM,< 31.6 nM
same,IC50,second compound 10 µM,< 31.6 nM
same,"viability, T/C",[1],104%
same,"viability, T/C",[2],75.9%
same,"viability, T/C",[3],80.3%
same,"viability, T/C",[4],62.4%
same,"viability, T/C",[5],83.7%
same,"viability, T/C",[6],75.6%
same,"viability, T/C",[7],90.4%
same,"viability, T/C",[8],63.2%
same,"viability, T/C",[9],71.9%
same,"viability, T/C",[10],81.4%
same,"viability, T/C",[11],72.1%
same,"viability, T/C",[12],79.7%
same,"viability, T/C",[13],66.3%
same,"viability, T/C",[14],67.9%
same,"viability, T/C",[15],58.5%
same,"viability, T/C",[16],65.2%
same,"viability, T/C",[17],62.8%
same,"viability, T/C",[18],69.2%
same,"viability, T/C",[19],56.1%
same,"viability, T/C",[20],58.1%
same,"viability, T/C",[21],70%
same,"viability, T/C",[22],64.5%
same,"viability, T/C",[23],68.4%
same,"viability, T/C",[24],73.9%
same,"viability, T/C",[25],34.3%
same,"viability, T/C",[26],37.7%
same,"viability, T/C",[27],42.8%
same,"viability, T/C",[28],43%
same,"viability, T/C",[29],53.2%
same,"viability, T/C",[30],45.8%
same,"viability, T/C",[31],18.6%
same,"viability, T/C",[32],31.1%
same,"viability, T/C",[33],43.1%
same,"viability, T/C",[34],29.9%
same,"viability, T/C",[35],34.6%
same,"viability, T/C",[36],24.1%
